# Read-outs that look alike come from different tables or passages of the source.
# Key:
# [1] = tested on: NF54 strain of P. falciparum; test: Ring-stage-specific drug activity (pLDH); format: cell-based; details: Plasmodium falciparum, median ± SEM
# Experimental: Each compound was dissolved in dimethyl sulfoxide (DMSO) and diluted in RPMI-1640 medium into seven different concentrations, which were tested against CQ-susceptible strains (NF54 or D10) or a CQ-resistant strain (W2). Each well of 96-well plates was filled with 100 µL drug and 100 µL parasitized RBC (asynchronous parasite culture), which were mixed to obtain a final parasitemia of 1.0% to 1.5% and 1.0% hematocrit. Plates were incubated for 72 h at 37°C in a standard gas mixture; then, parasite growth was determined by measuring the activity of the parasite lactate dehydrogenase (pLDH) ([38]). Briefly, at the end of incubation, the cultures were carefully resuspended, and 20 µL aliquots were removed and added to 100 µL Malstat reagent in a 96-well microplate. The Malstat reagent is made of 0.125% TritonX-100, 130 mM L-lactate, 30 mM Tris buffer, and 0.62 µM 3-acetylpyridine adenine dinucleotide. After that, 20 µL 1.9 µM nitro blue tetrazolium (NBT) and 0.24 µM phenazine ethyl sulfate were added to the plate. NBT was reduced to blueformazan and spectrophotometrically read at OD 650 nm using a Synergy 4 microplate reader (BioTek, Santa Clara, USA). […] IC50 values were expressed as means of two to three independent experiments, with each drug concentration in duplicate.
# The NF54 strain of P. falciparum was employed to test the drugs’ activity against ring stages and asynchronous parasite culture (all stages). The ring stages were obtained by synchronization with D-Sorbitol using a standard method ([39]). Each well of 96-well plates was filled with 100 µL each drug and 100 µL culture containing ring-stage or asynchronous parasites, which were mixed to obtain a final parasitemia of 1.0% to 1.5% and 1.0% hematocrit. […] Plates were processed using the pLDH method, and IC50 values were calculated as described above. At least two to three independent experiments were performed, using two technical replicates.
# ^[a] Synchronized ring-stage parasites were incubated in the presence of compounds for 6 h, drugs were removed by washing, and plates were incubated for an additional 66 h. ^[b] Asynchronous parasites were incubated in the presence of compounds for 6 h, drugs were removed by washing, and plates were incubated for an additional 66 h. ^[c] Asynchronous parasites were incubated in the presence of compounds for 72 h. ^[a,b^] Experiments were performed in parallel. ^[d] […] Parasite viability was determined by parasite lactate dehydrogenase. Data are from three experiments performed in duplicate. MFQ = mefloquine; DHA = dihydroartemisinin; SEM = standard error of the mean.
# [2] = tested on: F32-TEM parasites; test: In vitro recrudescence assay; format: cell-based, Plasmodium falciparum; details: 700 nM, 48 h exposure, monitored up to 30 days
# Experimental: (§1) Parasites were washed with RPMI-1640 medium before being placed in drug-free culture conditions with 10% human serum. Parasitemia was determined daily by Giemsa-staining of blood smears until the cultures reached their initial parasitemia, defined as the recrudescence day. […] Two independent experiments were performed ([10]).
# [3] = tested on: F32-ART parasites; test: In vitro recrudescence assay; format: cell-based, Plasmodium falciparum; details: 700 nM, 48 h exposure; for Recrudescence time in days (median; range), Recrudescence assay F32-ART: monitored up to 30 days
# Experimental: as §1
# [4] = tested on: F32-TEM (sensitive) early ring-stage parasites; test: Ring-stage survival assay (RSA0-3h); format: cell-based, Plasmodium falciparum; details: 700 nM, 6 h pulse, 66 h growth
# Experimental: Early ring-stage parasites (0–3 h post-invasion) of F32-ART and F32-TEM strains highly synchronized by Percoll-Sorbitol treatment were exposed to 700 nM of the drugs or 0.1% DMSO (control) for 6 h. Each drug was tested in duplicate. Parasite pellets were then washed in RPMI-1640 medium before being placed in drug-free culture conditions with 10% human serum and incubated for 66 h ([44]). Survival rates were assessed microscopically by two independent microscopists by counting the parasites in 10,000 RBCs. Three independent experiments were performed.
# [5] = tested on: quiescent ART-resistant parasites (F32-ART); test: Quiescent-stage survival assay (QSA); format: cell-based, Plasmodium falciparum; details: for Recrudescence time in days (median; range), Quiescent parasites (QSA) DHA / DHA + drug: then DHA plus 700 nM drug 48 h (condition B); for delay of recrudescence in the QSA versus DHA alone: threshold of activity 6 days
# Experimental: The QSA was performed as previously described to determine the drug activity on quiescent ART-resistant parasites ([11]). F32-ART culture parasites were synchronized at the ring stage and adjusted to 3% parasitemia and 2% hematocrit. […] At the end of treatment, parasites from each of the three conditions were washed with RPMI-1640 medium and replaced in new wells in a drug-free culture medium with 10% human serum. Parasitemia was determined daily by thin blood smears until the cultures reached their initial parasitemia (3%), which was defined as the recrudescence day ([11]). The recrudescence capacity of parasites exposed in conditions A and B was compared to determine whether the drug was active on quiescent parasites. Condition C was designed to check that the concentration at which the drug was tested acted on proliferating parasites. If no parasite recrudescence was observed, the experiment was stopped.
# [6] = asynchronous parasites, 6 h drug, wash, additional 66 h, read-out: IC50, Asynchronous
# [7] = asynchronous parasites, 72 h continuous drug, read-out: IC50, 72 h
# [8] = synchronized ring stages, 6 h drug, wash, additional 66 h, read-out: IC50, Ring stages
SMILES,"IC50 [1, 6] [nM]","IC50 [1, 7] [nM]","IC50 [1, 8] [nM]","Recrudescence time in days (median; range), Recrudescence assay F32-TEM [2]",delay in recrudescence between F32-ART and F32-TEM [3] [days],"Recrudescence time in days (median; range), Recrudescence assay F32-ART [3]","Survival rate (%) from the RSA0-3h, F32-TEM (sensitive) [4] [%]","Recrudescence time in days (median; range), Quiescent parasites (QSA) DHA / DHA ([5]; 700 nM DHA 6 h, then DHA alone 48 h (condition A))","Recrudescence time in days (median; range), Quiescent parasites (QSA) DHA / DHA + drug ([5]; 700 nM DHA 6 h)",delay of recrudescence in the QSA versus DHA alone [5] [days]
"C[C@H]1[C@@H](O)O[C@@H]2O[C@@]3(C)CC[C@H]4[C@H](C)CC[C@@H]1[C@@]24OO3 [DHA, dihydroartemisinin, reference compound]",4.6 ± 0.9,2.1 ± 0.6,5 ± 0.5,16.5 (15–18) days,8,7.5 (7–8) days,0.04 ± 0.03,8.5 (8–9) days,,
COCCOCCOCCOCCn1c(-c2ccc(-n3cc(-c4ccc(OC5OC6OC7(C)CCC8C(C)CCC(C5C)C68OO7)cc4)nn3)cc2)nc2ccccc21 (stereo not drawn) [Hybrid 1],3.5 ± 0.3,3 ± 0.3,1.5 ± 0.3,> 20 (21–>30) days,,11.5 (10– 13) days,0.05 ± 0.03,,11.5 (11–12) days,0.5
CC1CCC2C(C)C(OC(=O)CCC(=O)OCCNc3ccnc4cc(Cl)ccc34)OC3OC4(C)CCC1C32OO4 (stereo not drawn) [Hybrid 2],19.1 ± 1.8,8.1 ± 1,9 ± 1.5,16 (14–18) days,,7.5 (7–8) days,0.04 ± 0.02,,9 (8–10) days,3

# Reference: article PMC11232401, “Characterization of antimalarial activity of artemisinin-based hybrid drugs” (Antimicrobial Agents and Chemotherapy, 2024)
